{"source": "patent US20220135968A1", "about": "“TREATMENT OF SYNUCLEINOPATHY AND ANIMAL MODELS OF SYNUCLEINOPATHY” (TORREY PINES LAW GROUP, PC, priority 2018, published 2022)", "molecules": {"B1": {"name": "Agouti Signaling Protein (protein, UniProt P42127 23-132, looked up)", "Agouti-signaling protein": "HLPPEEKLRDDRSLRSNSSVNLLDVPSVSIVALNKKSKQIGRKAAEKKRSSKKEASMKKVVRPRTPLSAPCVATRNSCKPPAPACCDPCASCQCRFFRSACSCRVLSLNC"}}, "key": {"[1]": {"test_system": "patients", "settings": "cited from earlier work; for disease symptoms in patients: treatment reported in literature"}, "[2]": {"test_system": "Parkinson's mouse models", "settings": "Parkinson's mouse models (Patki, 2011); cited from earlier work"}, "[3]": {"test_system": "MNT-1 cells", "test": "Glucose consumption of cells in culture exposed to α-MSH", "assay_type": "cell-based, human", "settings": "α-MSH exposed vs not exposed cells, low nutrient conditions, FIG. 4A"}, "[4]": {"test_system": "MNT-1 cells", "test": "Rapamycin-induced autophagy in MNT-1 cells, melanin content as readout", "assay_type": "cell-based, human", "settings": "autophagy induced by rapamycin, exposure to α-MSH, FIG. 1A", "source_text": "FIG. 1A is a bar chart depicting α-MSH disabling autophagy in MNT-1 cells when autophagy is induced by rapamycin.\n(§1) FIGS. 1-6 show the induction of synucleinopathy in vitro and in vivo upon exposure to α-MSH employing the MNT-1 cell line (a gift from Michael S. Marks, Ph.D.) as an in vitro model of neuromelanin-containing neurons and the mouse administered α-MSH by intranasal route, respectively. […] Additionally, rapamycin induced autophagy was reduced in the prescence of α-MSH (FIG. 1A). Normally an increase in melanin production by MNT-1 is observed in the presence of rapamycin, since rapamycin induces autophagy and autophagy-related genes that promote melanogenesis. Melanin levels serve as a reliable readout of autophagy in MNT-1 (Kalie, 2013). Indeed, a decrease in melanin was observed when autophagy was inhibited in melanocytes (Zhang, 2015).\nA human pigmented cell line MNT-1 was utilized as a model for pigmented dopaminergic neurons to assess synuclein pathology following exposure to the inducer, α-MSH. […] Additionally, cell autophagy induced by rapamycin or starvation was disabled (FIGS. 1A and 1B). […] With time, vulnerable cells begin to die and undergo apoptotic cell death as measured by caspase activity (FIG. 4B). α-Synuclein accumulation and aggregation, loss of melanin and cell death by apoptosis are cardinal features observed in synuclein diseases such as PD and MSA."}, "[5]": {"test_system": "mice", "test": "Induction of synucleinopathy in mice by intranasal α-MSH, gait on rotorod", "assay_type": "in vivo, mouse", "settings": "α-MSH intranasal left nostril every other day for one month", "source_text": "FIGS. 5A-B depict the in vivo induction of synucleinopathy in mice by α-MSH. FIG. 5A is a drawing showing the administration of α-MSH into the left nostril of the mouse and a timeline showing frequency of administration and behavioral testing performed by rotorod. FIG. 5B is a series of rotorod testing photographs of a mouse chronically administered α-MSH by intranasal route for a period of 1 month to induce synucleinopathy (see FIG. 5a).\nThree mice were given the inducer, α-MSH, which was administered once every other day for one month through an intranasal route through the left nostril (FIG. 5a), and one mouse not subjected to the α-MSH inducer served as a healthy control. Observations and measurements were taken weekly at the end of α-MSH administration. […] The control mouse not subjected to α-MSH maintained normal gait and leg movement. Gait impairment observed in the three mice given the α-MSH, is characteristic of motor symptoms associated with PD and MSA symptoms. Moreover, the time-dependent intensified serverity of gait impairment after α-MSH administration is indicative of disease progression as measured through manisfestation of worsening physical symptoms. […]\nThree mice were given the inducer, α-MSH, through an intranasal route and one mouse was not subjected to α-MSH. The gait of all four mice was monitored every […] after subjection to one month of α-MSH treatment. […]"}, "[6]": {"test_system": "substantia nigra of mouse", "test": "Immunohistochemistry of mouse brain sections for alpha-synuclein", "assay_type": "in vivo", "settings": "mouse given α-MSH in left nostril, anti-mouse alpha synuclein staining, FIG. 6a", "procedure": "FIGS. 6A-B are immunohistochemistry microscopy photographs of brain sections stained with anti-mouse alpha synuclein (BD Biosciences, Clone 42/α-Synuclein).\nThree mice were given the inducer, α-MSH, which was administered once every other day for one month through an intranasal route through the left nostril (FIG. 5a), and one mouse not subjected to the α-MSH inducer served as a healthy control. Observations and measurements were taken weekly at the end of α-MSH administration. […] The control mouse not subjected to α-MSH maintained normal gait and leg movement. Gait impairment observed in the three mice given the α-MSH, is characteristic of motor symptoms associated with PD and MSA symptoms. Moreover, the time-dependent intensified serverity of gait impairment after α-MSH administration is indicative of disease progression as measured through manisfestation of worsening physical symptoms. A cardinal feature of synucleinopathy pathology is the presence of aggregated intracellular alpha-synuclein, which is the predominant constituent of Lewy bodies and glial cytoplasmic inclusions (GCIs) observed in the affected regions of the brain in PD, MSA and DLB. […] Pathology was absent in the control mouse not subjected to α-MSH (FIG. 6b)."}, "[7]": {"test_system": "MNT-1 cells", "test": "Starvation-induced (nutrient-depleted) autophagy and melanin formation in MNT-1 cells", "assay_type": "cell-based, human", "settings": "starved MNT-1 cells, α-MSH treated vs untreated, FIG. 1B", "source_text": "FIG. 1B is a photograph of cells in wells of a culture plate depicting starvation-induced autophagy in cells is inhibited by α-MSH resulting in inhibition of melanin production.\nas §1\nA human pigmented cell line MNT-1 was utilized as a model for pigmented dopaminergic neurons to assess synuclein pathology following exposure to the inducer, α-MSH. […] With time, vulnerable cells begin to die and undergo apoptotic cell death as measured by caspase activity (FIG. 4B). α-Synuclein accumulation and aggregation, loss of melanin and cell death by apoptosis are cardinal features observed in synuclein diseases such as PD and MSA."}, "[8]": {"test_system": "MNT-1 cells", "test": "Immunofluorescence staining of intracellular α-synuclein in MNT-1 cells", "assay_type": "cell-based, human", "source_text": "as §1\nFIGS. 2C, 3, and 4C show human ASIP inhibiting the effects of α-MSH in cellular models and is an effective therapeutic for preventing and reversing synuclein pathology. ASIP was tested as a therapeutic for synucleinopathy in the in vitro cellular model of neuromelanin-containing neurons modeled by MNT-1 cells. […] Immunofluorescence from the α-MSH and ASIP treated cells display similar quantity of α-synuclein compared to healthy, non-treated cells. […]"}, "[9]": {"test_system": "MNT-1 cells", "test": "Apoptosis by fluorescence-based detection of activated caspases (microscopy, flow cytometry)", "assay_type": "cell-based, human", "settings": "FIG. 4B", "source_text": "(§2) FIGS. 4A-C depict the mechanism of cell death induced by α-MSH and inhibition by ASIP, which blocks cell death. […] Vulnerable cells appear with higher fluorescence intensity for the marker of apoptosis, while untreated cells remain alive and show only background fluorescence (top-left panel). […] FIG. 4C is a bar chart depicting ASIP blocking α-MSH effects and protecting against cell death.\nas §1"}, "[10]": {"test_system": "MNT-1 cells", "test": "ASIP reversal of α-MSH induced block in autophagy, melanin content", "assay_type": "cell-based, human", "settings": "α-MSH exposed cells treated with ASIP vs not treated, FIG. 3", "procedure": "(§3) FIGS. 2C, 3, and 4C show human ASIP inhibiting the effects of α-MSH in cellular models and is an effective therapeutic for preventing and reversing synuclein pathology. ASIP was tested as a therapeutic for synucleinopathy in the in vitro cellular model of neuromelanin-containing neurons modeled by MNT-1 cells. […] Immunofluorescence from the α-MSH and ASIP treated cells display similar quantity of α-synuclein compared to healthy, non-treated cells. This indicates ASIP inhibits the accumulation and aggregation of intracellular α-synuclein, and additionally has the potential to reverse the accrual of toxic protein aggregates and reverse impairment of autophagy. […] Thus, as a therapeutic ASIP promotes an environment ideal for recovery and is amenable for cell restoration strategies. Based on the in vitro cellular model presented herein, ASIP halts induction and progression of synucleinopathy and reverses the disease."}, "[11]": {"test_system": "MNT-1 cells", "test": "Cell viability of α-MSH exposed cells with ASIP", "assay_type": "cell-based, human", "settings": "α-MSH exposed cells with 200 nM ASIP vs without ASIP, FIG. 4C", "source_text": "as §2, §3"}}, "note": "Entries after “also recorded” stand apart in the source; their conditions may differ.", "data": [{"molecule": "COc1ccc2[nH]cc(CCNC(C)=O)c2c1", "note": "[melatonin]", "values": [{"measurement": "disease symptoms in patients", "setting": "[1]", "value": "improved PD symptoms"}, {"measurement": "locomotor deficits", "setting": "[2]", "value": "stalled locomotor deficits"}]}, {"molecule": "Pro-Leu-Gly-NH2", "values": [{"measurement": "disease symptoms in patients", "setting": "[1]", "value": "improvement in disease symptoms"}]}, {"molecule": "α-Melanocyte Stimulating Hormone [α-MSH]", "values": [{"measurement": "glucose consumption", "setting": "[3]", "value": "glucose consumption is observed to be faster; also recorded: consume glucose faster than untreated cells"}, {"measurement": "rapamycin-induced cellular autophagy / melanin levels", "setting": "[4]", "value": "disabled; also recorded: lower melanin levels; also recorded: reduced"}, {"measurement": "gait / leg impairment", "setting": "[5]; four, six and eight weeks after", "value": "progressive leg impairment; also recorded: impaired/weakened right hind leg, loss of symmetry in gait; also recorded: progressive weakness and deteriorating motor control"}, {"measurement": "gait / leg impairment", "setting": "[5]; two weeks after end of treatment", "value": "No apparent leg impairment; also recorded: normal gait; also recorded: No significant gait impairment"}, {"measurement": "alpha-synuclein aggregation in substantia nigra", "setting": "[6]", "value": "synuclein pathology was observed in the substantia nigra; also recorded: alpha-synuclein aggregation observed in a neuron located in the left substantia nigra; also recorded: Lewy body-like aggregate of alpha-synuclein in the left substantia nigra"}, {"measurement": "starvation-induced autophagy / melanin formation", "setting": "[7]", "value": "lack of melanin; also recorded: melanin formation is not observed; also recorded: inhibited autophagy and melanin formation"}, {"measurement": "accumulation and aggregation of intracellular α-synuclein", "setting": "[8]; MNT-1 cells exposed to α-MSH vs not exposed, FIG. 2B", "value": "inducing accumulation and aggregation of α-synuclein; also recorded: increase in intensity of immunofluorescence staining of intracellular α-synuclein"}, {"measurement": "apoptotic events (flow cytometry, marker of apoptosis)", "setting": "[9]; 4, 7 and 9 days of exposure to α-MSH vs medium alone", "value": "increasing apoptotic events"}, {"measurement": "cell death by apoptosis (fluorescence microscopy)", "setting": "[9]; α-MSH exposed cells, 6 days", "value": "die by apoptosis"}]}, {"molecule": "β-Melanocyte Stimulating Hormone [β-MSH]", "values": [{"measurement": "skin darkening in treated patients", "setting": "[1]; patients treated with β-MSH (Cotzias, 1967)", "value": "darkenening of skin of treated patients"}, {"measurement": "disease symptoms in patients", "setting": "[1]", "value": "worsening of Parkinsonian symptoms"}]}, {"molecule": "B1", "values": [{"measurement": "melanin content (restoration of cellular autophagy)", "setting": "[10]", "value": "restoring melanin production; also recorded: increase in melanin content; also recorded: restoration of melanin levels"}, {"measurement": "cell viability (protection against cell death)", "setting": "[11]", "value": "protects against cell death; also recorded: viability is higher; also recorded: Cells maintain viability"}, {"measurement": "inhibition of α-MSH induced α-synuclein accumulation", "setting": "[8]; MNT-1 cells exposed to α-MSH and ASIP, FIG. 2C", "value": "halt α-synuclein accumulation and aggregation induced by α-MSH; also recorded: inhibition of α-MSH induced accumulation of α-synuclein; also recorded: decreased levels of α-synuclein measured by immunofluorescence"}]}]}
